Consider four compounds from patent publication US9034856B2, “17-(1′propenyl)-17-3′-oxidoestra-4-en-3-one derivative, use thereof, and medicament containing said derivative” (Bayer Intellectual Property GmbH, priority 2007, dated 2015).

One may read the IC50 as the point on the concentration scale where inhibition reaches its midpoint. By EC50 is commonly meant the concentration at which the effect is half-maximal.

Each structure is given as a SMILES string. Where two headings read alike, the source gives them in different places.

For assay [1], the target named is T1, mineralocorticoid receptor (Homo sapiens (Human), UniProt P08235). The assay can be described thus: Antimineralocorticoid action by transactivation test (MDCK reporter cells). In kind it is cell-based. The note with it: MDCK reporter cells, 1 nM aldosterone; for IC50: read-out: Mineralocorticoid receptor Antagonism IC50; for Emax: read-out: Mineralocorticoid receptor Antagonism efficacy. The method, then: 5. Determination of Antimineralocorticoid Action by Means of Transactivation Tests:
The antimineralocorticoid activity of the test substances was determined as for the transactivation tests described above.
The following modifications were undertaken: In this case reporter cell lines were used (MDCK cells) that express the human mineralocorticoid receptor, and transiently contain a reporter construct that contains luciferase under the control of a steroid hormone-responsive promoter.

The target in assay [2] is T2, androgen receptor (Homo sapiens (Human), UniProt P10275). The assay can be described thus: Androgen receptor binding test. The conditions noted are these: reference 3H-testosterone, Hi5 cytosol; for IC50: read-out: Androgen receptor IC50.
T2 sequence (P10275 whole entry, species assumed): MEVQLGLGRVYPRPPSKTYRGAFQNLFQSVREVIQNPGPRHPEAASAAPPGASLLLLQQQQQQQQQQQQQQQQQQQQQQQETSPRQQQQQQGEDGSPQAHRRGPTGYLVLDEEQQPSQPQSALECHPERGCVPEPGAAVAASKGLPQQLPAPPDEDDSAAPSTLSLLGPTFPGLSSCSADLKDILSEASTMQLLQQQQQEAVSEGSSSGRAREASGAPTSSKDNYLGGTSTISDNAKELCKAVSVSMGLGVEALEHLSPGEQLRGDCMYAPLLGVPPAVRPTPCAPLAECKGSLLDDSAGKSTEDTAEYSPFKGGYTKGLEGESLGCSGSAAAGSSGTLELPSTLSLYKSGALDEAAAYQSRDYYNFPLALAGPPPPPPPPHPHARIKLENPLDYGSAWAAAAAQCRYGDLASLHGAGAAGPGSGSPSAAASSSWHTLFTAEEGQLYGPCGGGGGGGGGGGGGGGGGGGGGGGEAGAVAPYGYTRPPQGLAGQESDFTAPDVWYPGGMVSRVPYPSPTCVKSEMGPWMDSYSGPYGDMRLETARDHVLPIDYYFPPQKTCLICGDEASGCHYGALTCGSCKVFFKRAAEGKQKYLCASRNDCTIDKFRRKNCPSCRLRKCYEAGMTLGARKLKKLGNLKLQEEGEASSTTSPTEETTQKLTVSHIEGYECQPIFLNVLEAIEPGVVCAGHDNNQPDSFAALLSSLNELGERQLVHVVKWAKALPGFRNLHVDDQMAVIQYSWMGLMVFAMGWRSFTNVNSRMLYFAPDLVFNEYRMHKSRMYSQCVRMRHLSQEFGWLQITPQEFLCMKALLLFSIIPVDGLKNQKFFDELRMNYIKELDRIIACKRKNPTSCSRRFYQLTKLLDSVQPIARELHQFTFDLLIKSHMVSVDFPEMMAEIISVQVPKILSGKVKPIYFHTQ
Procedure: Androgen Receptor Binding Test:
The test was carried out as in 1., with the following modifications: cytosol from androgen receptor-expressing insect cells (Hi5) was used, and the reference substance was ^3H-testosterone.
In assay [3] the target is progesterone receptor (Homo sapiens (Human), UniProt P06401). Description: Progesterone receptor binding test. The note with it: for Progesterone receptor (PR) Competition factor: CF 1 = affinity of progesterone, CF > 1 lower affinity; for IC50: displacement of 3H-progesterone, cytosol from PR-expressing Hi5 insect cells; for CF PR/CF MR: ratio of competition factors CF(PR) and CF(MR). The protocol: 1. Progesterone Receptor Binding Test:
Using cytosol from progesterone receptor-expressing insect cells (Hi5), competitive binding to the progesterone receptor was determined from the ability to displace ^3H-progesterone as reference substance from the receptor.

Assay [4] deals with T2, androgen receptor. Description: Androgenic/antiandrogenic action by transactivation test (PC3 reporter cells). It is filed as cell-based. The conditions noted are these: for IC50: 0.05 nM R1881, read-out: Androgen receptor Antagonism IC50; for EC50: read-out: Androgen receptor Agonism EC50. The method, then:
6. Determination of Androgenic/Antiandrogenic Action by Means of Transactivation Tests:
The androgenic/antiandrogenic action of the test substances was determined as for the transactivation tests described above.
The following modifications were made: In this case reporter cell lines were used (PC3 cells) that express the androgen receptor, and a reporter construct that contains luciferase under the control of a steroid hormone-responsive promoter.
For determination of the antiandrogenic efficacy, 0.05 nM R1881 was added to the cells, in order to achieve almost maximum stimulation of the reporter gene.

The target of assay [5] is T1, mineralocorticoid receptor. The assay can be described thus: Mineralocorticoid receptor binding test. The conditions noted are these: reference 3H-aldosterone, Hi5 cytosol. The source says: 2. Mineralocorticoid Receptor Binding Test:
The target of assay [6] is fusion protein from the PR-ligand-binding domain and a Gal4-transactivation domain (Homo sapiens, UniProt P06401). The assay can be described thus: Progestational action by transactivation test (CHO K1 reporter cells). In kind it is cell-based. The note with it: CHO K1 luciferase reporter, 16 hours incubation; for EC50: read-out: Progesterone receptor Agonism EC50; for Emax: read-out: Progesterone receptor Agonism efficacy. The method, then:
4. Determination of Progestational Action by Means of Transactivation Tests:
The test compounds were added eight hours later, and the cells were incubated with the compounds for 16 hours. The tests were carried out in triplicate. At the end of incubation the medium containing the effector was removed and replaced with lysis buffer. After luciferase assay substrate (Promega, #E1501) had been added, the 96-well plates were then put in a microplate luminometer (Pherastar, BMG Labtech), and the luminescence was measured. The IC50 values were evaluated using software for calculating dose-effect relations.
(In general: In a reporter assay the amount or activity of a reporter protein is the signal.)

Where [7] appears, read: 0.05 nM R1881, read-out: Androgen receptor Antagonism efficacy.
[8] abbreviates: read-out: Androgen receptor Agonism efficacy.

Chain of fusion protein from the PR-ligand-binding domain and a Gal4-transactivation domain (P06401 679-913): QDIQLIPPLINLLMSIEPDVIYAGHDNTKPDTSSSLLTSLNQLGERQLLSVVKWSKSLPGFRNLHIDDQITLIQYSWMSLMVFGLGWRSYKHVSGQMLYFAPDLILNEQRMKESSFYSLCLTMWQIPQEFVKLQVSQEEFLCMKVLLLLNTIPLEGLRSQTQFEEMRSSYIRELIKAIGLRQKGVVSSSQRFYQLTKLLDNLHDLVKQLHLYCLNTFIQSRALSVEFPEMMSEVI
T1 sequence (P08235 whole entry): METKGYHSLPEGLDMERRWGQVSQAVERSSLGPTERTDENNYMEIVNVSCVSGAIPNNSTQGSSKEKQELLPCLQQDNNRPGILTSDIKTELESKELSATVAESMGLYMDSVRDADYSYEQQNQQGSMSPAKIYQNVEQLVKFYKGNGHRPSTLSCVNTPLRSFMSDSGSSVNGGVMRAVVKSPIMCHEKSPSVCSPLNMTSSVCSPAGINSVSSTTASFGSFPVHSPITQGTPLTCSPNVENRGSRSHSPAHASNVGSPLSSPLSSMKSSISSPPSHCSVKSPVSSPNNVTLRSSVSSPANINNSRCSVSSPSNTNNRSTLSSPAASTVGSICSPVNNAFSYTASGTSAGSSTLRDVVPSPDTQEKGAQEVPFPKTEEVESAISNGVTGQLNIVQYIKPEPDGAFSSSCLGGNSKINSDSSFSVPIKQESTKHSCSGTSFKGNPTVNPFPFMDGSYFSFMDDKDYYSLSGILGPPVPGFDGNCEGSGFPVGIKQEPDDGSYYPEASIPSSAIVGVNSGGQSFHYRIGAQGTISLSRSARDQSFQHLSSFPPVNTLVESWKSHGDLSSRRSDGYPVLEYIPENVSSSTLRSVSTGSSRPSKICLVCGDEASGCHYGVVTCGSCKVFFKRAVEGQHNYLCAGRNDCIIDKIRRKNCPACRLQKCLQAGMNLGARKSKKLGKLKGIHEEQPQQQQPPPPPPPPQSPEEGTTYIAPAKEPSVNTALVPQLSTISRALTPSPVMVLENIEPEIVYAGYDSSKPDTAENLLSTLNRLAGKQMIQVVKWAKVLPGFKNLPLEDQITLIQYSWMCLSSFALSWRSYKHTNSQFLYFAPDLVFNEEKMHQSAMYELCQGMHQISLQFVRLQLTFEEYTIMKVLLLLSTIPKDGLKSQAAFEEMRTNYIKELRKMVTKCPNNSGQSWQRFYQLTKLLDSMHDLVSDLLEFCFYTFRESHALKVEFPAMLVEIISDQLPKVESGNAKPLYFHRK
Chain of progesterone receptor (P06401 whole entry, species assumed): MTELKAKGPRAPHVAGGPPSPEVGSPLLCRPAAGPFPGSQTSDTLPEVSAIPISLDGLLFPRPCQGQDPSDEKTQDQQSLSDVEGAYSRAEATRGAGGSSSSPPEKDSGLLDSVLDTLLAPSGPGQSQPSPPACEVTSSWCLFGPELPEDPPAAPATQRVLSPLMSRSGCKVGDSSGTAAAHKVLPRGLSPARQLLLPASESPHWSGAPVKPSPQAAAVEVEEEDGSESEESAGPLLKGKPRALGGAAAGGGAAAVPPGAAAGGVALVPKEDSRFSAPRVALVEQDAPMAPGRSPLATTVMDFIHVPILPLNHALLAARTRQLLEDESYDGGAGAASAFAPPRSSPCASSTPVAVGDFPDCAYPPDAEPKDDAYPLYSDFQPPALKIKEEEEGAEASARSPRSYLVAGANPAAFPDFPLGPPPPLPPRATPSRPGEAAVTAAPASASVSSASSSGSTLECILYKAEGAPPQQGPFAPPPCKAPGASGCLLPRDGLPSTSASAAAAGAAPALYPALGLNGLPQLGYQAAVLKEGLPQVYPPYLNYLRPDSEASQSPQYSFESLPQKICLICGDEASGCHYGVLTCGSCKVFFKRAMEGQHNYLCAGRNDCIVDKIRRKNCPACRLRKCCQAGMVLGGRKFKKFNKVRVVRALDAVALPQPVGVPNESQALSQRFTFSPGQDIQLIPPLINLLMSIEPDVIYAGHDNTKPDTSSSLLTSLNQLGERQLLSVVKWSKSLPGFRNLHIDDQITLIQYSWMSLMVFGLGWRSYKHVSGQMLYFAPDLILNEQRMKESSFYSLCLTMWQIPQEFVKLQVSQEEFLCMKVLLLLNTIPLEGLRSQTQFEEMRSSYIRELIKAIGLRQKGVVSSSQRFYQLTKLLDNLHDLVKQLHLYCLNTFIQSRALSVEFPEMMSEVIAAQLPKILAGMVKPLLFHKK

On to `CC[C@]12CC[C@H]3[C@@H]([C@H](C)CC4=CC(=O)CC[C@@H]43)[C@@H]1CC[C@@]21C=CCO1` [Example 9, 7α,18-Dimethyl-17α-(1′-propenyl)-17β-3′-oxidoestra-4-en-3-one], for which the IC50 came to 38 nM in assay [1], 81 nM in assay [2], 77 nM in assay [3] and 1000 nM in assay [4]. In addition, the Emax in assay [1] was determined as 105%; in assay [4] (setting [7]), 5%; in assay [4] (setting [8]) it was 77.9%; in assay [6], 55.9%. Besides, in assay [2], the “Androgen receptor Competition factor” value came to 3.0. Further, in assay [3], the “Progesterone receptor (PR) Competition factor” value (from here on “Progesterone receptor”) is on record as 3.26. The “CF PR/CF MR” value in assay [3] worked out at 2.04. Besides, the figures for the EC50 in assay [4] and in assay [6] were 3 nM and 7.1 nM, respectively. The “Mineralocorticoid receptor (MR) Competition factor” value in assay [5] is on record as 1.6.
`C=C[C@@H]1CC2=CC(=O)CC[C@@H]2[C@H]2CC[C@@]3(C)[C@@H](CC[C@@]34C=CCO4)[C@@H]21` [Example 5, 17α-(1′-Propenyl)-7α-vinyl-17β-3′-oxidoestra-4-en-3-one]: the IC50 worked out at 57 nM in assay [1], 53 nM in assay [2] and 1000 nM in assay [4]. In addition, the Emax in assay [1] was found to be 121%; in assay [4] (setting [7]), 5%; in assay [4] (setting [8]), 86.8%; in assay [6] it was 21.9%. The “Androgen receptor Competition factor” value in assay [2] was 2.2. Further, the “Progesterone receptor” value in assay [3] is 2.46. Also, the “CF PR/CF MR” value in assay [3] is 0.95. Further, the figures for the EC50 in assay [4] and in assay [6] were 3.7 nM and 1.2 nM, respectively. In addition, the “Mineralocorticoid receptor (MR) Competition factor” value in assay [5] was found to be 2.6.
As to `C=C[C@@H]1CC2=CC(=O)CC[C@@H]2[C@H]2CC[C@@]3(CC)[C@@H](CC[C@@]34C=CCO4)[C@@H]21` [Example 11, 7α-Vinyl-18-methyl-17α-(1′-propenyl)-17β-3′-oxidoestra-4-en-3-one], the “Mineralocorticoid receptor Antagonism (result in words)” value in assay [1] (cell spans IC50 and efficacy) is “Partial agonist”. For the same compound, in assay [2], the IC50 came out at 1300 nM and the “Androgen receptor Competition factor” value worked out at 4.7. Moreover, in assay [3], the “Progesterone receptor” value amounted to 6.24, the IC50 stood at 170 nM and the “CF PR/CF MR” value worked out at 4.80. For the same compound, in assay [4], the IC50 was determined as 1000 nM and the EC50 was 5.3 nM. In addition, in assay [4] (setting [7]), the Emax was 5%. The Emax in assay [4] (setting [8]) came to 88.8%. Moreover, the “Mineralocorticoid receptor (MR) Competition factor” value in assay [5] turned out to be 1.3. Moreover, in assay [6], the EC50 came to 100 nM and the Emax stood at 29.5%.
Take `CC[C@]12CC[C@H]3[C@@H](C[C@@H](CO)C4=CC(=O)CC[C@@H]43)[C@@H]1CC[C@@]21C=CCO1` [Example 13, 6β-Hydroxymethylene-18-methyl-17α-(1′-propenyl)-17β-3′-oxidoestra-4-en-3-one]: the IC50 in assay [1] turned out to be 110 nM; in assay [2], 1000 nM; in assay [3] it was 2100 nM; in assay [4], 140 nM. The Emax in assay [1] is 98.8%; in assay [4] (setting [7]), 48.1%; in assay [4] (setting [8]), 5%; in assay [6], 5%. Moreover, in assay [2], the “Androgen receptor Competition factor” value is recorded as 1000.0. In addition, in assay [3], the “Progesterone receptor” value was 88.59. Also, the “CF PR/CF MR” value in assay [3] is 40.27. In addition, the EC50 in assay [4] and in assay [6] was 1000 nM in each case. For the same compound, in assay [5], the “Mineralocorticoid receptor (MR) Competition factor” value came to 2.2.
